These results are taken from ChEMBL document CHEMBL1135179, “Synthesis of C-8 alkylamino substituted pyrrolo[2,1-c][1,4]benzodiazepines as potential anti-cancer agents” (2002).

Common to all, as to type: functional
One assay relates to NSCLC. Put plainly: Compound was tested for 50% lethality in Non-small-cell lung cancer cell lines. The note with it: Homo sapiens, read-out: Log LC50 (the source's name) (converted).
Assay [1] has as its system Panel ovarian (Carcinoma cell lines). The assay is described as follows: Compound was tested for 50% lethality in Ovarian cancer cell lines. Conditions: Homo sapiens, read-out: Log LC50 (the source's name) (converted).
In assay [2] the test system is Panel CNS (Carcinoma cell lines). The assay is described as follows: Compound was tested for 50% lethality in CNS cancer cell lines. The note with it: Homo sapiens, read-out: Log LC50 (the source's name) (converted).
Assay [3] has as its system Panel breast (Carcinoma cell lines). Put plainly: Compound was tested for 50% lethality in Breast cancer cell lines. Conditions: Homo sapiens, read-out: Log LC50 (the source's name) (converted).
The next assay deals with leukaemia cell line. Put plainly: Compound was tested for 50% lethality in leukemia cancer cell lines. Conditions: Homo sapiens, read-out: Log LC50 (the source's name) (converted).
For assay [4], the system named is Panel melanoma (Carcinoma cell lines). Put plainly: Compound was tested for 50% lethality in Melanoma cancer cell lines. The note with it: Homo sapiens, read-out: Log LC50 (the source's name) (converted).
In assay [5] the test system is Panel renal (Carcinoma cell lines). The assay is described as follows: Compound was tested for 50% lethality in Renal cancer cell lines. The note with it: Homo sapiens, read-out: Log LC50 (the source's name) (converted).
Assay [6] deals with Panel colon (Carcinoma cell lines). Put plainly: Compound was tested for 50% lethality in Colon cancer cell lines. The note with it: Homo sapiens, read-out: Log LC50 (the source's name) (converted).
Assay [7] relates to Panel prostate (Carcinoma cell lines). Put plainly: Compound was tested for 50% lethality in Prostate cancer cell lines. Conditions: Homo sapiens, read-out: Log LC50 (converted).

On to `COc1cc2c(cc1OCCCN1CCN(C)CC1)N=C[C@@H]1CCCN1C2=O`, for which the CC50 in the assay with NSCLC was 67.6 µM; in assay [1] it was 61.7 µM; in assay [2], 64.6 µM; in [3], 64.6 µM; with leukaemia cell line it was 52.5 µM; in assay [4], 30.9 µM. Also, the CC50 in assay [5] is 56.2 µM; in assay [6], 55 µM; in [7], > 100 µM.

Turning to `COc1cc2c(cc1OCCCN1CCOCC1)N=C[C@@H]1CCCN1C2=O`, the CC50 with NSCLC was 95.5 µM; in [1], > 100 µM; in assay [2] it was 95.5 µM; in [3], 97.7 µM; in the assay with leukaemia cell line, > 100 µM; in assay [4], 87.1 µM. The CC50 is 97.7 µM in assay [5], 66.1 µM in assay [6] and > 100 µM in assay [7].

For `CCN(CC)CCCOc1cc2c(cc1OC)C(=O)N1CCC[C@H]1C=N2`, the CC50 was > 100 µM in the assay on NSCLC; > 100 µM in assay [1]; > 100 µM in [2]; > 100 µM in assay [3]; > 100 µM in the assay on leukaemia cell line; 93.3 µM in [4]. Moreover, the CC50 in assay [5] is > 100 µM; in [6], 87.1 µM; in assay [7] it was > 100 µM.
